According to ChEMBL document CHEMBL5303573, “Mapping human microbiome drug metabolism by gut bacteria and their genes” (Nature, 2019):
Non-standard residues stand in square brackets, D forms with d. Residues, ends and D or L forms follow the SMILES beside them. pGlu = O=C1CC[C@@H](C(=O)O)N1; Thz = O=C(O)[C@@H]1CSCN1

Assays:
[1] = The drug is tested on Eubacterium rectale strain: ATCC33656 for biotransformation. The drug concentrations were measured before and after a 12-h incubation by liquid-chromatography-coupled mass spectrometry (LC–MS); details: agathobacter rectalis, 2 µM
[2] = The drug is tested on Bacteroides ovatus strain: ATCC8483 for biotransformation. The drug concentrations were measured before and after a 12-h incubation by liquid-chromatography-coupled mass spectrometry (LC–MS); details: 2 µM
[3] = The drug is tested on Bacteroides fragilis strain: HMW615 for biotransformation. The drug concentrations were measured before and after a 12-h incubation by liquid-chromatography-coupled mass spectrometry (LC–MS); details: 2 µM
[4] = The drug is tested on Providencia stuartii strain: ATCC25827 for biotransformation. The drug concentrations were measured before and after a 12-h incubation by liquid-chromatography-coupled mass spectrometry (LC–MS); details: 2 µM
[5] = bacteroides thetaiotaomicron, 12 h, 2 µM
Description: The drug is tested on Bacteroides thetaiotaomicron strain: VPI-5482 for biotransformation. The drug concentrations were measured before and after a 12-h incubation by liquid-chromatography-coupled mass spectrometry (LC–MS)

[6] = The drug is tested on Bacteroides cellulosilyticus strain: DSM14838 for biotransformation. The drug concentrations were measured before and after a 12-h incubation by liquid-chromatography-coupled mass spectrometry (LC–MS); details: 2 µM
[7] = The drug is tested on Bacteroides coprophilus strain: DSM18228 for biotransformation. The drug concentrations were measured before and after a 12-h incubation by liquid-chromatography-coupled mass spectrometry (LC–MS); details: 2 µM
[8] = The drug is tested on Dorea formicigenerans strain: ATCC27755 for biotransformation. The drug concentrations were measured before and after a 12-h incubation by liquid-chromatography-coupled mass spectrometry (LC–MS); details: 2 µM
[9] = bacteroides fragilis, 12 h, 2 µM
Description: The drug is tested on Bacteroides fragilis strain: 3397 (T10) for biotransformation. The drug concentrations were measured before and after a 12-h incubation by liquid-chromatography-coupled mass spectrometry (LC–MS)

[10] = The drug is tested on Clostridium sporogenes strain: ATCC15579 for biotransformation. The drug concentrations were measured before and after a 12-h incubation by liquid-chromatography-coupled mass spectrometry (LC–MS); details: 2 µM
[11] = The drug is tested on Odoribacter splanchnicus strain: fecal isolate for biotransformation. The drug concentrations were measured before and after a 12-h incubation by liquid-chromatography-coupled mass spectrometry (LC–MS); details: 2 µM
[12] = akkermansia muciniphila, 12 h, 2 µM
Description: The drug is tested on Akkermansia muciniphila strain: ATCC BAA-835 for biotransformation. The drug concentrations were measured before and after a 12-h incubation by liquid-chromatography-coupled mass spectrometry (LC–MS)

[13] = The drug is tested on Bacteroides xylanisolvens strain: DSM18836 for biotransformation. The drug concentrations were measured before and after a 12-h incubation by liquid-chromatography-coupled mass spectrometry (LC–MS); details: 2 µM
[14] = bacteroides thetaiotaomicron, 12 h, 2 µM; remark: listed apart in the source
Description: The drug is tested on Bacteroides thetaiotaomicron strain: 3731 for biotransformation. The drug concentrations were measured before and after a 12-h incubation by liquid-chromatography-coupled mass spectrometry (LC–MS)

[15] = The drug is tested on Bacteroides sp. WH2 strain: WH2 for biotransformation. The drug concentrations were measured before and after a 12-h incubation by liquid-chromatography-coupled mass spectrometry (LC–MS); details: bacteroides sp. wh2, 12 h, 2 µM
[16] = The drug is tested on Bacteroides fragilis strain: ATCC43859 for biotransformation. The drug concentrations were measured before and after a 12-h incubation by liquid-chromatography-coupled mass spectrometry (LC–MS); details: 2 µM
[17] = The drug is tested on Collinsella intestinalis strain: DSM13280 for biotransformation. The drug concentrations were measured before and after a 12-h incubation by liquid-chromatography-coupled mass spectrometry (LC–MS); details: 2 µM
[18] = parabacteroides johnsonii, 12 h, 2 µM
Description: The drug is tested on Parabacteroides johnsonii strain: DSM18315 for biotransformation. The drug concentrations were measured before and after a 12-h incubation by liquid-chromatography-coupled mass spectrometry (LC–MS)

[19] = The drug is tested on Collinsella aerofaciens strain: ATCC25986 for biotransformation. The drug concentrations were measured before and after a 12-h incubation by liquid-chromatography-coupled mass spectrometry (LC–MS); details: 2 µM
[20] = The drug is tested on Providencia rettgeri strain: DSM1131 for biotransformation. The drug concentrations were measured before and after a 12-h incubation by liquid-chromatography-coupled mass spectrometry (LC–MS); format: ADME; parameters: dose 2 uM, timepoint 0 vs 12 hours; details: 2 µM

SMILES: CCCCCNC(=N)N/N=C/c1c[nH]c2ccc(OC)cc12.O=C(O)/C=C\C(=O)O [TEGASEROD MALEATE]
- Bacterial Biotransformation [1]: Compound NOT metabolized
- Bacterial Biotransformation [2]: Compound NOT metabolized
- Bacterial Biotransformation [3]: Compound NOT metabolized
- Bacterial Biotransformation [4]: Compound NOT metabolized
- Bacterial Biotransformation [5]: Compound NOT metabolized
- Bacterial Biotransformation [6]: Compound NOT metabolized
- Bacterial Biotransformation [7]: Compound NOT metabolized
- Bacterial Biotransformation [8]: Compound NOT metabolized
- Bacterial Biotransformation [9]: Compound NOT metabolized
- Bacterial Biotransformation [10]: Compound NOT metabolized
- Bacterial Biotransformation [11]: Compound NOT metabolized
- Bacterial Biotransformation [12]: Compound NOT metabolized
- Bacterial Biotransformation [13]: Compound NOT metabolized
- Bacterial Biotransformation [14]: Compound NOT metabolized
- Bacterial Biotransformation [15]: Compound NOT metabolized
- Bacterial Biotransformation [16]: Compound NOT metabolized
- Bacterial Biotransformation [17]: Compound NOT metabolized
- Bacterial Biotransformation [18]: Compound NOT metabolized
- Bacterial Biotransformation [19]: Compound NOT metabolized

SMILES: CN1[C@@H]2CC[C@H]1C[C@@H](OC(=O)c1c[nH]c3ccccc13)C2 [TROPISETRON]
- Bacterial Biotransformation [1]: Compound NOT metabolized
- Bacterial Biotransformation [2]: Compound NOT metabolized
- Bacterial Biotransformation [3]: Compound NOT metabolized
- Bacterial Biotransformation [4]: Compound NOT metabolized
- Bacterial Biotransformation [5]: Compound NOT metabolized
- Bacterial Biotransformation [6]: Compound NOT metabolized
- Bacterial Biotransformation [7]: Compound NOT metabolized
- Bacterial Biotransformation [8]: Compound NOT metabolized
- Bacterial Biotransformation [9]: Compound NOT metabolized
- Bacterial Biotransformation [11]: Compound NOT metabolized
- Bacterial Biotransformation [12]: Compound NOT metabolized
- Bacterial Biotransformation [13]: Compound NOT metabolized
- Bacterial Biotransformation [20]: Compound NOT metabolized
- Bacterial Biotransformation [14]: Compound NOT metabolized
- Bacterial Biotransformation [15]: Compound NOT metabolized
- Bacterial Biotransformation [16]: Compound NOT metabolized
- Bacterial Biotransformation [17]: Compound NOT metabolized
- Bacterial Biotransformation [18]: Compound NOT metabolized
- Bacterial Biotransformation [19]: Compound NOT metabolized

SMILES: COc1cc2nc(N3CCN(C(=O)c4ccco4)CC3)nc(N)c2cc1OC [PRAZOSIN]
- Bacterial Biotransformation [1]: Compound NOT metabolized
- Bacterial Biotransformation [2]: Compound NOT metabolized
- Bacterial Biotransformation [3]: Compound NOT metabolized
- Bacterial Biotransformation [4]: Compound NOT metabolized
- Bacterial Biotransformation [5]: Compound NOT metabolized
- Bacterial Biotransformation [6]: Compound NOT metabolized
- Bacterial Biotransformation [7]: Compound NOT metabolized
- Bacterial Biotransformation [8]: Compound NOT metabolized
- Bacterial Biotransformation [9]: Compound NOT metabolized
- Bacterial Biotransformation [11]: Compound NOT metabolized
- Bacterial Biotransformation [12]: Compound NOT metabolized
- Bacterial Biotransformation [13]: Compound NOT metabolized
- Bacterial Biotransformation [20]: Compound NOT metabolized
- Bacterial Biotransformation [14]: Compound NOT metabolized
- Bacterial Biotransformation [15]: Compound NOT metabolized
- Bacterial Biotransformation [16]: Compound NOT metabolized
- Bacterial Biotransformation [17]: Compound NOT metabolized
- Bacterial Biotransformation [18]: Compound NOT metabolized
- Bacterial Biotransformation [19]: Compound NOT metabolized

SMILES: CC(C)c1nc(N(C)S(C)(=O)=O)nc(-c2ccc(F)cc2)c1/C=C/[C@@H](O)C[C@@H](O)CC(=O)[O-].CC(C)c1nc(N(C)S(C)(=O)=O)nc(-c2ccc(F)cc2)c1/C=C/[C@@H](O)C[C@@H](O)CC(=O)[O-].[Ca+2] [ROSUVASTATIN CALCIUM]
- Bacterial Biotransformation [1]: Compound NOT metabolized
- Bacterial Biotransformation [3]: Compound NOT metabolized
- Bacterial Biotransformation [4]: Compound NOT metabolized
- Bacterial Biotransformation [6]: Compound NOT metabolized
- Bacterial Biotransformation [7]: Compound NOT metabolized
- Bacterial Biotransformation [8]: Compound NOT metabolized
- Bacterial Biotransformation [9]: Compound NOT metabolized
- Bacterial Biotransformation [10]: Compound NOT metabolized
- Bacterial Biotransformation [13]: Compound NOT metabolized
- Bacterial Biotransformation [20]: Compound NOT metabolized
- Bacterial Biotransformation [14]: Compound NOT metabolized
- Bacterial Biotransformation [15]: Compound NOT metabolized
- Bacterial Biotransformation [16]: Compound NOT metabolized
- Bacterial Biotransformation [17]: Compound NOT metabolized
- Bacterial Biotransformation [19]: Compound NOT metabolized

SMILES: O=C1CC[C@@H](C(=O)N2CSC[C@H]2C(=O)O)N1 [PIDOTIMOD] ([pGlu]-[Thz]-OH)
- Bacterial Biotransformation [1]: Compound NOT metabolized
- Bacterial Biotransformation [2]: Compound metabolized
- Bacterial Biotransformation [3]: Compound metabolized
- Bacterial Biotransformation [4]: Compound NOT metabolized
- Bacterial Biotransformation [5]: Compound metabolized
- Bacterial Biotransformation [6]: Compound NOT metabolized
- Bacterial Biotransformation [7]: Compound metabolized
- Bacterial Biotransformation [8]: Compound NOT metabolized
- Bacterial Biotransformation [9]: Compound metabolized
- Bacterial Biotransformation [11]: Compound NOT metabolized
- Bacterial Biotransformation [12]: Compound NOT metabolized
- Bacterial Biotransformation [20]: Compound NOT metabolized
- Bacterial Biotransformation [15]: Compound NOT metabolized
- Bacterial Biotransformation [16]: Compound metabolized
- Bacterial Biotransformation [17]: Compound NOT metabolized
- Bacterial Biotransformation [18]: Compound metabolized
- Bacterial Biotransformation [19]: Compound NOT metabolized

SMILES: Nc1nc2ccc(OC(F)(F)F)cc2s1 [RILUZOLE]
- Bacterial Biotransformation [1]: Compound NOT metabolized
- Bacterial Biotransformation [2]: Compound NOT metabolized
- Bacterial Biotransformation [3]: Compound metabolized
- Bacterial Biotransformation [4]: Compound NOT metabolized
- Bacterial Biotransformation [5]: Compound metabolized
- Bacterial Biotransformation [6]: Compound NOT metabolized
- Bacterial Biotransformation [7]: Compound NOT metabolized
- Bacterial Biotransformation [8]: Compound NOT metabolized
- Bacterial Biotransformation [9]: Compound NOT metabolized
- Bacterial Biotransformation [10]: Compound NOT metabolized
- Bacterial Biotransformation [11]: Compound NOT metabolized
- Bacterial Biotransformation [12]: Compound NOT metabolized
- Bacterial Biotransformation [13]: Compound metabolized
- Bacterial Biotransformation [14]: Compound NOT metabolized
- Bacterial Biotransformation [15]: Compound NOT metabolized
- Bacterial Biotransformation [16]: Compound metabolized
- Bacterial Biotransformation [17]: Compound NOT metabolized
- Bacterial Biotransformation [18]: Compound NOT metabolized
- Bacterial Biotransformation [19]: Compound NOT metabolized

SMILES: C[C@@H](CO)NC(=O)[C@@H]1C=C2c3cccc4[nH]cc(c34)C[C@H]2N(C)C1.O=C(O)/C=C\C(=O)O [ERGONOVINE MALEATE]
- Bacterial Biotransformation [1]: Compound NOT metabolized
- Bacterial Biotransformation [2]: Compound metabolized
- Bacterial Biotransformation [3]: Compound metabolized
- Bacterial Biotransformation [4]: Compound metabolized
- Bacterial Biotransformation [5]: Compound metabolized
- Bacterial Biotransformation [6]: Compound metabolized
- Bacterial Biotransformation [7]: Compound metabolized
- Bacterial Biotransformation [8]: Compound metabolized
- Bacterial Biotransformation [9]: Compound metabolized
- Bacterial Biotransformation [11]: Compound metabolized
- Bacterial Biotransformation [12]: Compound NOT metabolized
- Bacterial Biotransformation [13]: Compound metabolized
- Bacterial Biotransformation [20]: Compound NOT metabolized
- Bacterial Biotransformation [14]: Compound NOT metabolized
- Bacterial Biotransformation [15]: Compound metabolized
- Bacterial Biotransformation [16]: Compound metabolized
- Bacterial Biotransformation [18]: Compound metabolized
- Bacterial Biotransformation [19]: Compound metabolized

SMILES: CC(CN1c2ccccc2Sc2ccccc21)N(C)C (stereo not drawn) [PROMETHAZINE]
- Bacterial Biotransformation [1]: Compound NOT metabolized
- Bacterial Biotransformation [2]: Compound NOT metabolized
- Bacterial Biotransformation [3]: Compound NOT metabolized
- Bacterial Biotransformation [4]: Compound NOT metabolized
- Bacterial Biotransformation [5]: Compound NOT metabolized
- Bacterial Biotransformation [6]: Compound NOT metabolized
- Bacterial Biotransformation [8]: Compound NOT metabolized
- Bacterial Biotransformation [9]: Compound NOT metabolized
- Bacterial Biotransformation [10]: Compound NOT metabolized
- Bacterial Biotransformation [12]: Compound NOT metabolized
- Bacterial Biotransformation [13]: Compound NOT metabolized
- Bacterial Biotransformation [14]: Compound NOT metabolized
- Bacterial Biotransformation [15]: Compound NOT metabolized
- Bacterial Biotransformation [16]: Compound NOT metabolized
- Bacterial Biotransformation [17]: Compound NOT metabolized
- Bacterial Biotransformation [18]: Compound NOT metabolized
- Bacterial Biotransformation [19]: Compound NOT metabolized
